Where “and” joins values, the source holds several entries; their conditions need not be identical. Identical values can stand only once.
Tests used:
human plasma = test: Plasma protein binding, HT Dialysis 96-well apparatus, LC-MS/MS; type: in vitro ADME; conditions: 3 µM
[1] = as above; type: in vitro ADME; conditions: male, human, plasma, pH 7.4, Recovery (%), mean, n = 4

Bound (%) (human plasma; individual replicates 1-4): 99.01% and 99.07% and 98.91% and 98.99%
Recovery (%) (human plasma; individual replicates 1-4): 80.60% and 94.07% and 119.11% and 83.10%
Unbound (%) (human plasma; individual replicates 1-4): 0.99% and 0.93% and 1.09% and 1.01%
Unbound (%) (human plasma; mean, n = 4): 1.01%
recovery at 5 h, 3 µM [1]: 94.2%
SMILES: O=C(O)Cc1ccccc1Nc1c(Cl)cccc1Cl [Diclofenac]
